In paper PMC9030254, “Target Hopping from Protein Kinases to PXR: Identification of Small-Molecule Protein Kinase Inhibitors as Selective Modulators of Pregnane X Receptor from TüKIC Library” (Cells, 2022):

Legend:
Assay in all cases: Kinase profiling
Format in all cases: biochemical
ACVR2A = target: T1, ACVR2A (Homo sapiens, UniProt P27037)
T1 construct: purchased ProQinase (Freiburg, Germany)
Description: (§1) The analysis was performed by ProQinase (Freiburg, Germany).

CDK5/p25NCK = target: T2, CDK5/p25NCK (Homo sapiens, UniProt Q00535)
T2 construct: purchased ProQinase (Freiburg, Germany)
Description: as §1

MEKK3 = target: T3, MEKK3 (Homo sapiens, UniProt Q99759)
T3 construct: purchased ProQinase (Freiburg, Germany)
T3 sequence (Q99759 1-626): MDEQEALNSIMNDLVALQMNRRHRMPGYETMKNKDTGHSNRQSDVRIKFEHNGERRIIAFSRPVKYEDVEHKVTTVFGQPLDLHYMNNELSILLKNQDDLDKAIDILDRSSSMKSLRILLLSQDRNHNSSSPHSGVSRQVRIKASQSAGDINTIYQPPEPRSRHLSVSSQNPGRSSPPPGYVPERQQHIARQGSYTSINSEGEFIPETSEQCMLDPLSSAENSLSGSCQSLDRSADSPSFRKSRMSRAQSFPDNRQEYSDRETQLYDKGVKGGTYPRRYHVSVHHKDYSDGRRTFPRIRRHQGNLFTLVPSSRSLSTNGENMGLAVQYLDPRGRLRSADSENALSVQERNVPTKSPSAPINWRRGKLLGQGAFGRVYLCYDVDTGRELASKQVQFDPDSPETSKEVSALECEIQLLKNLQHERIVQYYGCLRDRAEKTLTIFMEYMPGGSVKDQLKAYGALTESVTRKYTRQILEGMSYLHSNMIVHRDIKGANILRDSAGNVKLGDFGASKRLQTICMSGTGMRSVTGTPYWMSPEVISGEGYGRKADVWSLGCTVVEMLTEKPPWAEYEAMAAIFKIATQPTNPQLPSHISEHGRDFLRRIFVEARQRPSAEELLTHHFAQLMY
Description: as §1

NEK7 = target: T4, NEK7 (Homo sapiens, UniProt Q8TDX7)
T4 construct: purchased ProQinase (Freiburg, Germany)
Description: as §1

RIPK5 = target: T5, RIPK5 (Homo sapiens, UniProt Q6XUX3)
T5 construct: purchased ProQinase (Freiburg, Germany)
T5 sequence (Q6XUX3 1-929): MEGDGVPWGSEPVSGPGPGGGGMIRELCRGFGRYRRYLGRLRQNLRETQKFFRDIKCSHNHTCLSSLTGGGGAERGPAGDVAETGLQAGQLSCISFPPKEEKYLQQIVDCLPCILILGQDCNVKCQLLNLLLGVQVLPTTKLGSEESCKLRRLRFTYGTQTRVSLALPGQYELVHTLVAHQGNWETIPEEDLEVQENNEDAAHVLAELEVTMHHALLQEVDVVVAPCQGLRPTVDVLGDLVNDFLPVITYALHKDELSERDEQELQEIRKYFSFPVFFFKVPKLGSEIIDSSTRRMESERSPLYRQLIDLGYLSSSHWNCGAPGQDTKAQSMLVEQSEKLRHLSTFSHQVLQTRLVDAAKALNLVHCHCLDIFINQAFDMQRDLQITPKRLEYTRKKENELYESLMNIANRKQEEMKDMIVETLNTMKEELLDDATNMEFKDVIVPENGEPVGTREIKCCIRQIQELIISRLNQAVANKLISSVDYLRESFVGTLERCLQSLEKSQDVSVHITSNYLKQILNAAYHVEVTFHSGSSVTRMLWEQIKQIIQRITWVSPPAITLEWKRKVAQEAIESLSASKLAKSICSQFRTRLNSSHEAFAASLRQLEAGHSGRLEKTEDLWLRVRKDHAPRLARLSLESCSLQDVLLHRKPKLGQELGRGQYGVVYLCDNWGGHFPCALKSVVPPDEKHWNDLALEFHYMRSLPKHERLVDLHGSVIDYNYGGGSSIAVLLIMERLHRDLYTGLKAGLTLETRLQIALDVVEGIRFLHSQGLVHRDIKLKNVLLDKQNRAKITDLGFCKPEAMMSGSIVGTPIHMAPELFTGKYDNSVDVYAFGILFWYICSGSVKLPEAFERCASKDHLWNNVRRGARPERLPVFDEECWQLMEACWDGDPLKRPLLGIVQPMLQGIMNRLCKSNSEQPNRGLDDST
Description: as §1

TGFBR1 = target: T6, TGFBR1 (Homo sapiens, UniProt P36897)
T6 construct: purchased ProQinase (Freiburg, Germany)
T6 sequence (P36897 34-503): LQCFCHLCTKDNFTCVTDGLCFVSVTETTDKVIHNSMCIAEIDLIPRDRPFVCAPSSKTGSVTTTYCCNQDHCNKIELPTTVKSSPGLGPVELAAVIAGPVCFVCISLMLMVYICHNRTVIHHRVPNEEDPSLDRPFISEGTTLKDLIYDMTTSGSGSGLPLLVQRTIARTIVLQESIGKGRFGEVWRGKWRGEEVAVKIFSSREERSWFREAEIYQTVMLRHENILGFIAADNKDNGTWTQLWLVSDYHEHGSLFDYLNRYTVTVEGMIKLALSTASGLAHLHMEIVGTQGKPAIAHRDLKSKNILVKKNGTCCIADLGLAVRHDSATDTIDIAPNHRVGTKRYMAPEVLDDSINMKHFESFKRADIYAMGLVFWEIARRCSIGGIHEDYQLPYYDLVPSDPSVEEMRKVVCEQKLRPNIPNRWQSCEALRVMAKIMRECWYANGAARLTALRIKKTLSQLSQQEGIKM
Description: as §1

TXK = target: T7, TXK (Homo sapiens, UniProt P42681)
T7 construct: purchased ProQinase (Freiburg, Germany)
T7 sequence (P42681 1-527): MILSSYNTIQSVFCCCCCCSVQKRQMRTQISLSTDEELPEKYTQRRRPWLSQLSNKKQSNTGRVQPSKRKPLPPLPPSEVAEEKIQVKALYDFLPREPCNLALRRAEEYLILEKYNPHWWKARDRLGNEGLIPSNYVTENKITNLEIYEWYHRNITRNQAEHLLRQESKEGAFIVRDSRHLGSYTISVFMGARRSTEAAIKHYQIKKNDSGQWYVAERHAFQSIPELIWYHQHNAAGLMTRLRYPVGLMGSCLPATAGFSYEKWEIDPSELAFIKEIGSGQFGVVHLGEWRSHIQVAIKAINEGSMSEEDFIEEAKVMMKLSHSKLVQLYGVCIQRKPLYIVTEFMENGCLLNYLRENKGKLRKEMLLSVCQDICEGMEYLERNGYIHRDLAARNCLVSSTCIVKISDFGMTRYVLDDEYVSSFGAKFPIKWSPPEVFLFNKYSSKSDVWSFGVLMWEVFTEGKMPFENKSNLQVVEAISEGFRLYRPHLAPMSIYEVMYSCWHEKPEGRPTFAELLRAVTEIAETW
Description: as §1

TYK2 = target: T8, TYK2 (Homo sapiens, UniProt P29597)
T8 construct: purchased ProQinase (Freiburg, Germany)
Description: as §1

T4 sequence (Q8TDX7 whole entry): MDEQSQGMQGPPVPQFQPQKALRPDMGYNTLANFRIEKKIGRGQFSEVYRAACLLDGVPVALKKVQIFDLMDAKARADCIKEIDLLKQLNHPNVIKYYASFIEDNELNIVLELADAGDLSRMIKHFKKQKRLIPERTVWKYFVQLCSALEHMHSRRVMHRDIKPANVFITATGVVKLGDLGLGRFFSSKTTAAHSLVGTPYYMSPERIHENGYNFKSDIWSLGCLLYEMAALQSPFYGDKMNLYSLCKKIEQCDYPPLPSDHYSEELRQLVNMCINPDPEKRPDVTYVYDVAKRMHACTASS
T2 sequence (Q00535 whole entry): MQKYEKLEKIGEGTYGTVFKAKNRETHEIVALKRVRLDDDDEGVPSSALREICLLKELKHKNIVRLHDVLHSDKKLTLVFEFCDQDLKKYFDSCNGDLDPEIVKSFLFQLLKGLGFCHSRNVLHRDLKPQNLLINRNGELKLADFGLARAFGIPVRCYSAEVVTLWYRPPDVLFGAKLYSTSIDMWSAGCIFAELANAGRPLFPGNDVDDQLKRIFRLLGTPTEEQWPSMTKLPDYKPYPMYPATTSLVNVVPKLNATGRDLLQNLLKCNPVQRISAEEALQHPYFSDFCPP
T2 sequence (Q15078 99-307 partner limits assumed): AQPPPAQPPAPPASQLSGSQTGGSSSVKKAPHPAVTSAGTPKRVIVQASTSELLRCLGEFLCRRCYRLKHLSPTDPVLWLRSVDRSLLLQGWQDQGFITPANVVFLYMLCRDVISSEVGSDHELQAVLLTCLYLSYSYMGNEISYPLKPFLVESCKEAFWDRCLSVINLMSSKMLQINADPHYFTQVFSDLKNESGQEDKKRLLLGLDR
T8 sequence (P29597 whole entry): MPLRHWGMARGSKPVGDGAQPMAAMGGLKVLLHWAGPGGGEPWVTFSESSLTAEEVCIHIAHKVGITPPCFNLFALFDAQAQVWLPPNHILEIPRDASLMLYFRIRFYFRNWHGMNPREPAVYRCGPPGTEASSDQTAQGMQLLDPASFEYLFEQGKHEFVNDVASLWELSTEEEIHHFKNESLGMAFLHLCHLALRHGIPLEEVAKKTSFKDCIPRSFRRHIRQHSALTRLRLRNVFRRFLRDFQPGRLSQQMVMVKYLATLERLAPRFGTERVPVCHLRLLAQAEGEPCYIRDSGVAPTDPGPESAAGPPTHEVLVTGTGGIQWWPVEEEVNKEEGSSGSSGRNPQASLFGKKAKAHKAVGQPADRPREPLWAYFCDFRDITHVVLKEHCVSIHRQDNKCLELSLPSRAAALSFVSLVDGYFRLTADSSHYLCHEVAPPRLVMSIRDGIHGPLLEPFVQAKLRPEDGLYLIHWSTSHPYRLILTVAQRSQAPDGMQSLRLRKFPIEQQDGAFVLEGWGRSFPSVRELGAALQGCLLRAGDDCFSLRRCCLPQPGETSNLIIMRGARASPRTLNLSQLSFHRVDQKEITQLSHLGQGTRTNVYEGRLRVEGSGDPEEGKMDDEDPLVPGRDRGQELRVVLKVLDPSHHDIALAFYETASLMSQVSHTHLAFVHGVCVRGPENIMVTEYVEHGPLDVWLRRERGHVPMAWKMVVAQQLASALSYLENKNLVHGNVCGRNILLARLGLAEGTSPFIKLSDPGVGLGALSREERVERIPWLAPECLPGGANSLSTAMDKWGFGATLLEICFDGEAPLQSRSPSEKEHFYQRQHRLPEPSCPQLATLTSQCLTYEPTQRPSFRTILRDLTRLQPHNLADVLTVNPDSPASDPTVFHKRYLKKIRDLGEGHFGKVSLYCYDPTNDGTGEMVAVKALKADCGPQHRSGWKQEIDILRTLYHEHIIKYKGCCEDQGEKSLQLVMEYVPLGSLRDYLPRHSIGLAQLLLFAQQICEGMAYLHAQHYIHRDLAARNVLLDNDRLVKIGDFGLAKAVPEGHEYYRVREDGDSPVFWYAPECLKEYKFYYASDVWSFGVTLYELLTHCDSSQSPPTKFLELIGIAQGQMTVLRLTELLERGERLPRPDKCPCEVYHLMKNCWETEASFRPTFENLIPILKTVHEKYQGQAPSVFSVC
T1 sequence (P27037 20-513): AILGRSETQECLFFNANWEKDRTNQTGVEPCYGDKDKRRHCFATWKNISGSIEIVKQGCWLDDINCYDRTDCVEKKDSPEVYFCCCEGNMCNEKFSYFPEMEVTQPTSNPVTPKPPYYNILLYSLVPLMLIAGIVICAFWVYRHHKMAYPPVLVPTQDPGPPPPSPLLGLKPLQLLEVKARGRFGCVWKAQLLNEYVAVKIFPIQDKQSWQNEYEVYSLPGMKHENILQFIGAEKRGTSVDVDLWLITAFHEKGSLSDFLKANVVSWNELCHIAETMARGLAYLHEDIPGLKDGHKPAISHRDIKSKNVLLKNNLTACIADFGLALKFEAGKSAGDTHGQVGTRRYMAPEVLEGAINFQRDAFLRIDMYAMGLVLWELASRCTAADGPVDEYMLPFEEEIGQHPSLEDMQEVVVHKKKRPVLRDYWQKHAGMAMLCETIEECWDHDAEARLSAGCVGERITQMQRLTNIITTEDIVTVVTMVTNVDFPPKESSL

| SMILES | Residual activity (ACVR2A; 1.0E-05 M) | Residual activity (ACVR2A; 1.0E-06 M) | Residual activity (CDK5/p25NCK; 1.0E-05 M) | Residual activity (CDK5/p25NCK; 1.0E-06 M) | Residual activity (MEKK3; 1.0E-05 M) | Residual activity (MEKK3; 1.0E-06 M) | Residual activity (NEK7; 1.0E-05 M) | Residual activity (NEK7; 1.0E-06 M) | Residual activity (RIPK5; 1.0E-05 M) | Residual activity (RIPK5; 1.0E-06 M) | Residual activity (TGFBR1; 1.0E-05 M) | Residual activity (TGFBR1; 1.0E-06 M) | Residual activity (TXK; 1.0E-05 M) | Residual activity (TXK; 1.0E-06 M) | Residual activity (TYK2; 1.0E-05 M) | Residual activity (TYK2; 1.0E-06 M) |
| --- | --- | --- | --- | --- | --- | --- | --- | --- | --- | --- | --- | --- | --- | --- | --- | --- |
| O=C(Nc1ccc(F)c(Nc2ccc3c(c2)CCCCC3=O)c1)c1cccc(F)c1 [Compound 109] | 108 % of control | 99 % of control | 95 % of control | 95 % of control | 102 % of control | 94 % of control | 121 % of control | 108 % of control | 100 % of control | 101 % of control | 91 % of control | 88 % of control | 97 % of control | 97 % of control | 93 % of control | 102 % of control |
| O=C(Cc1ccccc1)Nc1ccc(F)c(Nc2ccc3c(c2)CCCCC3=O)c1 [Compound 100] | 95 % of control | 89 % of control | 90 % of control | 99 % of control | 104 % of control | 95 % of control | 118 % of control | 109 % of control | 99 % of control | 100 % of control | 88 % of control | 95 % of control | 90 % of control | 100 % of control | 83 % of control | 95 % of control |
